Laboratory results taken from patent US20260069606A1, “Oxidative Stress and Diabetes Treatment with Cobinamide” (The Regents of the University of California, priority 2022, published 2026).

Assays:
[1] = mice, same amount of cobinamide for six months; cited from earlier work
D. melanogaster = assay: Survival of fruit flies during paraquat poisoning; type: in vivo; conditions: 20 mM paraquat with 0.8 mM drug in food, over 7 d
Protocol: The number of live flies was counted each day for 7 d. The experiment was repeated seven times, for a total of 70 flies per condition. The percent surviving flies was calculated; error bars represent standard deviations and are shown in one direction only for sake of clarity. […] Chi, cobinamide in Panel A and histidyl-cobinamide in Panels B-K; Imp, imisopasem; MnTP, MnTBAP; CbL, cobalamin; DNPH, 2,4-dinitrophenylhydrazine; ND, non-diabetic; D, diabetic; Veh, vehicle.
To test cobinamide in a whole animal, D. melanogaster was selected for initial studies, and oxidative stressed was increased in the files by administering paraquat in their food. Cobinamide was again compared to imisopasem, MnTBAP, and hydroxocobalamin, all administered in food.

COS-7 cells = tested on: COS-7 cells
Protocol: FIGS. 3A-3H. […] FIGS. 3A-3B. […] FIG. 3A. […] FIG. 3B. […] FIGS. 3C-3D. […] FIG. 3D. […] FIGS. 3E-3F. […] FIG. 3E. Representative blots are shown. […] FIG. 3F. […] FIG. 3G. […] FIG. 3H.
Finally, whether cobinamide could alleviate the effects of oxidative stress induced by yet another mechanism in a different cell type was tested using paraquat-treated COS-7 cells. Paraquat generates O2·^− through a redox cycling mechanism and increases both intracellular O2·^− and H2O2^42.

[2] = tested on: mouse model of human familial aortic aneurysm; conditions: 1 mM cobinamide in drinking water; cited from earlier work
[3] = Reaction with superoxide, hypoxanthine-xanthine oxidase-cytochrome c reduction system; type: biochemical; conditions: for Apparent rate constant, reaction with superoxide (O2·^−): second order, hypoxanthine-xanthine oxidase-cytochrome c system, new data of this study
Protocol: FIGS. 1A-1G. Cobinamide Functions as a Superoxide Dismutase Mimetic. FIGS. 1A-1B. Chemical structures of aquohydroxo-cobinamide (FIG. 1A) and hydroxo-cobalamin (FIG. 1B). FIGS. 1C, 1E. Increasing concentrations of Chi(III) (FIG. 1C) or Chi(II) (FIG. 1E) were incubated in a hypoxanthine-xanthine oxidase-cytochrome c-catalase system for measuring O2·^−, with the change in absorbance at 550 nm (ΔAbs) plotted versus time. A no substrate (no hypoxanthine) control was included. FIGS. 1D, 1F. The calculated rate of change of absorbance at 550 nm in the absence of Chi(III) or Chi(II) (Vo) divided by the calculated rate in their presence (v) is plotted against the Chi(III) (FIG. 1D) or Chi(II) (FIG. 1F) concentration, respectively. The slope of the fitted line was used to calculate the apparent rate constant according to the following equation: kCbi=slope×kcytochrome c×[cytochrome c], where kcytochrome c=1.4×10^6 M^−1 s^−1 and [cytochrome c]=70 μM^70. The data shown are the mean of duplicate samples from one experiment, with similar results found in two additional experiments. Dotted lines show 95% confidence intervals. FIG. 1G. A 20 μM solution of Chi(III) in DMSO was scanned from 280 to 600 nm yielding the spectrum shown as a black line. An equimolar amount of […] (KO2) dissolved in dimethyl sulfoxide (DMSO) was added and the solution was scanned immediately, yielding the grey line. […] The experiment was conducted three times with identical results.
Table I. Reaction Rates of Cobinamide (Cbi), Cobalamin, Imisopasem, and MnTBAP with Reactive Oxygen and Nitrogen Species. Reactions of the indicated compounds with O2·^−, ONOO^−, and ·NO are all second order reactions with rate constants in units of M^−1 s^−1. The reactions of Cbi(III) and Cbi(II) with H2O2 are third order with rate constant units of M^−2 s^−1. Chi(II) and cobalamin(II) bind nitric oxide, so a Ka is shown in units of M^−1. For the new data presented in this study, rate constants were measured for O2·^− using a hypoxanthine-xanthine oxidase-cytochrome c system, for H2O2 using a H2O2-specific sensor (World Precision Instruments), and for ONOO^− using a stopped-flow instrument. Published rate constants for Cu/Zn and Mn superoxide dismutases (SOD) and catalase are shown for reference.^a,b Letters and numbers in parenthesis refer to footnotes and references, respectively.
(§1) The reaction of cobinamide with O2·^− was studied in two different systems, generating O2·^− using a hypoxanthine-xanthine oxidase system.
The first system contained 100 μM hypoxanthine and 0.1 unit xanthine oxidase in 20 mM sodium phosphate buffer, pH 7.1. The amount of O2·^− was measured by following reduction of ferric-cytochrome c (70 μM) at 550 nm as described previously^65. Catalase was included (32 units per sample), because xanthine oxidase generates both O2·^− and H2O2, and the latter can re-oxidize the ferro-cytochrome c product^34,66. The reaction was followed for 10 min. A no substrate blank lacking hypoxanthine was included.
(§2) In both systems, the experiments were conducted in the absence and presence of the indicated concentrations of Cbi(III) or Chi(II) 65.
Catalase was included in the reaction mixture, because the hypoxanthine-xanthine oxidase system also generates H2O2 and the latter can oxidize the ferro-cytochrome c product back to ferric-cytochrome c, thereby interfering with the kinetic measurement^34.

[4] = Plasma cobinamide concentration in mice given cobinamide in drinking water; conditions: discussion summary
Protocol: Male C57BL/6NHsd mice (20 weeks old) were housed three to four animals per cage in a temperature-controlled environment with a 12-h light/dark cycle and fed standard rodent chow with ad libitum access to food and water. After one week of acclimatization, mice weighing 30±3 g were injected intraperitoneally for five consecutive days with either saline (n=20) or 50 mg/kg streptozotocin (n=20) 69. […] The 16 diabetic mice and a corresponding number of the saline-injected, non-diabetic mice were split randomly in half to receive either plain drinking water or histidyl-cobinamide in the drinking water. The four groups of animals are referred to as: diabetic vehicle (D-Veh); diabetic, cobinamide-treated (D-Cbi); non-diabetic, vehicle (ND-Veh); and non-diabetic, cobinamide-treated (ND-Cbi). The histidyl-cobinamide concentration was 1 mM for the ND-Cbi mice, but because the diabetic mice drank more than the non-diabetic mice, the cobinamide concentration for the D-Cbi mice was decreased accordingly. The water was replenished twice a week.
After three months of treatment, the mice were weighed, fasted for 6 h, and then underwent an intraperitoneal glucose tolerance test (IPGTT) using 2 g/kg of a 20% glucose solution. Blood glucose concentrations were measured just before the glucose injection (time 0, fasting specimen) and at 15, 30, 60, and 120 min following the injection. […] Two days later, the mice were euthanized by inducing deep anesthesia with 200 mg/kg ketamine and 40 mg/kg xylazine administered by intraperitoneal injection, followed by exsanguination via an open cardiac puncture.
Type I diabetic mice were generated using streptozotocin, and then provided cobinamide in the drinking water for three months.

[5] = Reaction with superoxide, spin trap DMPO / EPR; type: biochemical
Protocol: as §1
The second system contained 1 mM hypoxanthine, 0.04 U xanthine oxidase, and 0.26 M DMPO in phosphate-buffered saline, pH 7.4 (PBS). Samples were transferred to a capillary tube, and introduced into the EPR cavity of a Magnettech MiniScope MS5000. DMPO-OH signals arising from the DMPO-OOH spin adduct were measured at 37° C. for 5 min. The area under the DMPO-OOH peak was calculated using Origin 2022b software. To avoid variability across runs, signal amplitudes were normalized to the intensity of simultaneously recorded Mn reference signals originating from ZnS:Mn^2+ fixed within the EPR cavity.
as §2
The reaction of Chi(III) with O2·^− was also measured using the spin-trap DMPO, which yields a distinctive electron paramagnetic resonance (EPR) spectrum on reacting with O2·^−. Sub-micromolar concentrations of cobinamide reduced the EPR signal in a dose-dependent fashion, yielding an apparent rate constant of 7.5×10^7 M^−1 s^−1 for the reaction of Chi(III) with O2·^− (FIG. 1B).

In the case of C/C1=C2/[N-][C@H]([C@H](CC(N)=O)[C@@]2(C)CCC(=O)NC[C@@H](C)O)[C@]2(C)N=C(/C(C)=C3N=C(/C=C4N=C1[C@@H](CCC(N)=O)C\4(C)C)[C@@H](CCC(N)=O)[C@]\3(C)CC(N)=O)[C@@H](CCC(N)=O)[C@]2(C)CC(N)=O.[Co+3] [cobinamide, aquohydroxo-cobinamide], the Hematological parameters [1] is given as “did not affect hematological parameters”, the “Mortality of paraquat-exposed flies” value (D. melanogaster) is given as less than 30% and the “Cell growth of paraquat-treated cells” value (COS-7 cells; COS-7, 1 mM paraquat 3 h, 100 μM drug, counted 48 h later) is given as ~80 % of the control value. For the same compound, the “Effect on cell growth, drug alone” value (COS-7 cells; COS-7, no paraquat) was “no effect on cell growth”, the “Aortic oxidative stress, pathological changes and aneurysm formation” value [2] was “blocked the increase in oxidative stress and pathological changes, and prevented aneurysm formation” and the “Clinical or laboratory evidence of toxicity” value [2] was “no clinical or laboratory evidence of toxicity”. The “Apparent rate constants, reaction with O2·^−” value ([3]; hypoxanthine-xanthine oxidase-cytochrome c reduction system, catalase included, exponent shared in the sentence) was 1.12e+08 M⁻¹ s⁻¹, the “Apparent rate constant, reaction with superoxide (O2·^−)” value ([3]; listed as Cbi(III)) was 1.1e+08 M⁻¹ s⁻¹ and the “Apparent rate constant, reaction with superoxide (O2·^−)” value ([3]; listed as Chi(III)) was 1.12e+08 M⁻¹ s⁻¹. The “Concentration in the plasma of mice that received cobinamide in drinking water” value [4] was 0.1 to 0.5 µM and the “Apparent rate constant, reaction with O2·^−” value [5] was 7.5e+07 M⁻¹ s⁻¹.
